Test results as given in patent US9072703B2 (Ipsen Pharma S.A.S., priority 2008, dated 2015).

Tests used:
[1] = Human plasma half-life assay; assay type: in vitro ADME; conditions: 37° C., LC-MS, read-out: Human Plasma T½ (converted)
Procedure: (§1) B. Human and Rat Plasma Half-Life Assay
(§2) 50 μL was removed at various times, like at 0, 1, 2, 3, 4, 8, 24, 32, 48, 56, 72 hours, mixed with 5 μL formic acid and 150 μL acetonitrile in a microcentrifuge tube, vertexed, and centrifuged for 10 minutes at 10K rpm. The supernatant was transferred to an injection vial and analyzed by LC-MS. The LC-MS system consisted of an API4000 mass spectrometer with an ESI probe. Positive ion mode and full scan detection were used. HPLC separation was carried out on a Luna 3μ C8 (2), 2×30 mm column with a gradient from 90% A to 90% B in 10 minutes at a flow rate of 0.3 ml/min. Buffer A was 1% formic acid in water and buffer B was 1% formic acid acetonitrile.

[2] = Rat plasma half-life assay; assay type: in vitro ADME; conditions: 37° C., LC-MS, read-out: Rat Plasma T½ (converted)
Procedure: as §1, §2

Row | SMILES | half-life at 0.1 mg/ml [1] [h] | half-life at 0.1 mg/ml [2] [h]
1 | CCCCCCCCCCCC(=O)NCCC[C@H](NC(=O)CNC(=O)[C@H](CCCCN)NC(=O)[C@H](CCC(N)=O)NC(=O)[C@H](C)NC(=O)[C@H](CC(C)C)NC(=O)[C@H](CC(C)C)NC(=O)[C@H](Cc1c[nH]c2ccccc12)NC(=O)[C@H](CC(N)=O)NC(=O)[C@@H](NC(=O)[C@H](Cc1ccccc1)NC(=O)[C@H](CC(=O)O)NC(=O)[C@H](CCC(N)=O)NC(=O)[C@H](CCC(N)=O)NC(=O)[C@H](Cc1c[nH]cn1)NC(=O)[C@@H](NC(=O)[C@H](CCCCN)NC(=O)[C@H](CC(=O)O)NC(=O)[C@H](CCSC)NC(=O)[C@H](C)NC(=O)[C@@H](NC(=O)C1(NC(=O)[C@H](Cc2ccc(O)cc2)NC(=O)[C@H](CC(=O)O)NC(=O)[C@H](CO)NC(=O)[C@@H](NC(=O)[C@H](Cc2ccccc2)NC(=O)[C@@H](NC(=O)CNC(=O)[C@H](CCC(=O)O)NC(=O)[C@H](C)NC(=O)[C@@H](N)Cc2ccc(O)cc2)[C@@H](C)O)[C@@H](C)CC)CCCC1)[C@@H](C)CC)[C@@H](C)CC)C(C)C)C(=O)N[C@@H](CCCCN)C(=O)N[C@@H](CC(N)=O)C(=O)N[C@@H](CC(=O)O)C(=O)N[C@@H](Cc1c[nH]c2ccccc12)C(=O)N[C@@H](CCCCN)C(=O)N[C@@H](Cc1c[nH]cn1)C(=O)N[C@@H](CC(N)=O)C(=O)N[C@H](C(=O)N[C@H](C(=O)N[C@@H](CCC(N)=O)C(=O)N[C@@H](Cc1c[nH]cn1)C(=O)O)[C@@H](C)O)[C@@H](C)CC [Example 34, [A5c^11, Orn^32(N—C(O)—(CH2)10—CH3), His^43]hGIP(1-43)-OH] | 7.5 | 20.1
2 | CCCCCCCCCCCC(=O)NCCC[C@H](NC(=O)[C@H](CCCCN)NC(=O)CNC(=O)[C@H](CCCCN)NC(=O)[C@H](CCC(N)=O)NC(=O)[C@H](C)NC(=O)[C@H](CC(C)C)NC(=O)[C@H](CC(C)C)NC(=O)[C@H](Cc1c[nH]c2ccccc12)NC(=O)[C@H](CC(N)=O)NC(=O)[C@@H](NC(=O)[C@H](Cc1ccccc1)NC(=O)[C@H](CC(=O)O)NC(=O)[C@H](CCC(N)=O)NC(=O)[C@H](CCC(N)=O)NC(=O)[C@H](Cc1c[nH]cn1)NC(=O)[C@@H](NC(=O)[C@H](CCCCN)NC(=O)[C@H](CC(=O)O)NC(=O)[C@H](CCSC)NC(=O)[C@H](C)NC(=O)[C@@H](NC(=O)C1(NC(=O)[C@H](Cc2ccc(O)cc2)NC(=O)[C@H](CC(=O)O)NC(=O)[C@H](CO)NC(=O)[C@@H](NC(=O)[C@H](Cc2ccccc2)NC(=O)[C@@H](NC(=O)CNC(=O)[C@H](CCC(=O)O)NC(=O)[C@H](C)NC(=O)[C@@H](N)Cc2ccc(O)cc2)[C@@H](C)O)[C@@H](C)CC)CCCC1)[C@@H](C)CC)[C@@H](C)CC)C(C)C)C(=O)N[C@@H](CC(N)=O)C(=O)N[C@@H](CC(=O)O)C(=O)N[C@@H](Cc1c[nH]c2ccccc12)C(=O)N[C@@H](CCCCN)C(=O)N[C@@H](Cc1c[nH]cn1)C(=O)N[C@@H](CC(N)=O)C(=O)N[C@H](C(=O)N[C@H](C(=O)N[C@@H](CCC(N)=O)C(=O)N[C@@H](Cc1c[nH]cn1)C(=O)O)[C@@H](C)O)[C@@H](C)CC [Example 35, [A5c^11, Orn^33(N—C(O)—(CH2)10—CH3), His^43]hGIP(1-43)-OH] | 9.5 | 17
